The test system of data set [1] is serum total cholesterol. Nature of the data set: Hypocholesterolemic effect on cholesterol feeding rats. The conditions noted are these: Rattus norvegicus, oral, high cholesterol diet rats, read-out: % reduction of serum total cholesterol; for inhibition in vivo at 10 mg/kg: 10 mg/kg/day. The class given is in vivo, male Wistar rats. On the procedure: Hypocholesterolemic effect on cholesterol feeding rats. Male Wistar rats aged 7 weeks old were fed a diet (CE®) supplemented with 2%(w/w) cholesterol, 0.5%(w/w) sodium cholate, 10%(w/w) lard, 0.2%(w/w) propylthiouracyl and 5%(w/w) sucrose, for 3 days. Following 3 days, the compounds of the present invention were administered orally, and the animals were maintained with the high cholesterol diet. On the next day of final drug administration, blood was drown and serum total cholesterol-levels were measured enzymatically by autoanalyzer. CL277082 was used as a reference compound.

The subject of data set [2] is macrophages. Description: Inhibitory effect on cholesteryl ester accumulation in macrophages. The class given is cell-based, mouse (ddy-family male mice). The conditions noted are these: Macrophage; mouse peritoneal macrophages, β-VLDL, [3H]oleic acid, 3 hrs; read-out: Inhibition activity on cholesteryl ester accumulation (IC50 grade). On the procedure: Inhibitory effect on cholesteryl ester accumulation in macrophages.
Namely resident peritoneal cells suspended in phosphate-buffered saline (PBS) were plated in plastic Petri dishes (35 mm×10 mm) at a density of 2×10^6 cells. The adherent macrophages were cultured overnight at 37° C. in Dalbecco's modified Eagle medium (DME) containing 10% fetal bovine serum (FCS) under humidified 5% CO2. […] After discarding the medium, each macrophage monolayer was washed with PBS and lipids were extracted with hexane/isopropyl alcohol (3:2). Cholesteryl esters in the extract were separated by thin-layer chromatography and the radioactivity was measured by liquid scintillation counter.

Data set [3] has as its system male Wistar rats. Nature of the data set: Acute toxicity. The class given is in vivo. The conditions noted are these: 7 days observation. An excerpt: The pyrimidine derivatives of the present invention were examined for acute toxicity by using male Wistar rats fasted over night aged 7 weeks old.
The target in data set [4] is T1, ACAT (Rattus norvegicus, UniProt Q7TQM4).
T1 construct: Liver microsomes as an enzyme sample of ACAT were prepared from overnight-fasted male rats; from tissue; host or cells: liver of overnight-fasted male rats, 6 weeks old; microsomes
T1 sequence (Q7TQM4 1-524): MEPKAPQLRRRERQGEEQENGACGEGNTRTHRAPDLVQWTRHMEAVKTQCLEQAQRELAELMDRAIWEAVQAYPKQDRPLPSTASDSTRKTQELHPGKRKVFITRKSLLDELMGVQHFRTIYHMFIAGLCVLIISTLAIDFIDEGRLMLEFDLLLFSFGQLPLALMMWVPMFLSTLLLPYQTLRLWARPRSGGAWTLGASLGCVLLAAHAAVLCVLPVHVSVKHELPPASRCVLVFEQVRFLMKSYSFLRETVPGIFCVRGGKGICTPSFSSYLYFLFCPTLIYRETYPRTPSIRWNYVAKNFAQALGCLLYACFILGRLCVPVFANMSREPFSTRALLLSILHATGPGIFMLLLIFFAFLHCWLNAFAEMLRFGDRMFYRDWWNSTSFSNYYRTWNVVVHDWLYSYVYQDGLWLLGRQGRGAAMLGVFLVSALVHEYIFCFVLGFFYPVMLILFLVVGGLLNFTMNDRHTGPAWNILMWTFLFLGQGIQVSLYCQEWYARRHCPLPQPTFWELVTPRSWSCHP
Nature of the data set: Inhibitory effect on microsomal ACAT activity in rat liver. It is filed as biochemical. The note with it: rat liver microsomes; read-out: IC50 (50% inhibition of cholesterol esterification). (Microsomes from liver hold many membrane-bound enzymes, among them those of drug oxidation.)

The source of these data is patent publication US5397781A, “Pyrimidine derivatives” (Mochida Pharmaceutical Company, Limited, priority 1992, dated 1995).

The term IC50 denotes the concentration at which inhibition is half-maximal.

`CCCN(CCCC(=O)Nc1c(S)nc(C)nc1N(CCC)c1ccccc1)c1ccccc1` [Example 143, N-[4-mercapto-2-methyl-6-(N-phenyl-N-propylamino)pyrimidin-5-yl]-4-(N-phenyl-N-propylamino)butanamide]: the inhibition in vivo at 30 mg/kg in data set [1] (30 mg/kg/day) turned out to be 20%. The IC50 in data set [2] was 1000 to 10000 nM; in data set [4] it was 80 nM. Besides, in data set [3] (single oral dose 2 g/kg), the “lethal incident (acute toxicity)” value is “no lethal incident was observed”.
Take `CCCCCCN(CCCC(=O)Nc1c(S)nc(C)nc1N(CC)CC)c1ccccc1` [Example 155, N-[4-(N,N-diethylamino)-6-mercapto-2-methylpyrimidin-5-yl]-4-(N-hexyl-N-phenylamino)butanamide]: the inhibition in vivo at 10 mg/kg in data set [1] was 66%. The “lethal incident (acute toxicity)” value in data set [3] (single oral dose 1 g/kg) was “no lethal incident was observed”. The IC50 in data set [4] was 88 nM.
Turning to `CCCCN(CCCC)c1nc(C)nc(OCC)c1NC(=O)CCCCN(CCC)c1ccccc1` [Example 196, N-[4-(N,N-dibutylamino)-6-ethoxy-2-methylpyrimidin-5-yl]-5-(N-phenyl-N-propylamino)pentanamide], in data set [1], the inhibition in vivo at 10 mg/kg was 48%. The “lethal incident (acute toxicity)” value in data set [3] (single oral dose 1 g/kg) is on record as “no lethal incident was observed”.
As to `CCCCCCN(CCCC(=O)Nc1c(SC)ncnc1N(CC)CC)c1ccccc1` [Example 232, N-[4-(N,N-diethylamino)-6-methylthiopyrimidin-5-yl]-4-(N-hexyl-N-phenylamino)butanamide], in data set [1], the inhibition in vivo at 10 mg/kg stood at 65%. Moreover, the “lethal incident (acute toxicity)” value in data set [3] (single oral dose 1 g/kg) is listed as “no lethal incident was observed”.
For the molecule `CCCCCCN(CCCC(=O)Nc1c(SC)nc(OC)nc1N(CC)CC)c1ccccc1` [Example 233, N-[4-(N,N-diethylamino)-2-methoxy-6-methylthiopyrimidin-5-yl]-4-(N-hexyl-N-phenylamino)butanamide], in data set [1], the inhibition in vivo at 10 mg/kg is 76%. In addition, the “lethal incident (acute toxicity)” value in data set [3] (single oral dose 1 g/kg) is “no lethal incident was observed”.
As for `CCCCN(CCCC)c1nc(C)nc(SC)c1NC(=O)CCCCN(CCC)c1ccccc1` [Example 247, N-[4-(N,N-dibutylamino)-2-methyl-6-methylthiopyrimidin-5-yl]-5-(N-phenyl-N-propylamino)pentanamide], the inhibition in vivo at 10 mg/kg in data set [1] was found to be 76%. For the same molecule, the values for the IC50 in data set [2] and in data set [4] were 10 to 100 nM and 16 nM, respectively. Moreover, the “lethal incident (acute toxicity)” value in data set [3] (single oral dose 1 g/kg) was “no lethal incident was observed”.
With `CCCCCCN(CCCC(=O)Nc1c(SCC)nc(C)nc1N(CC)CC)c1ccccc1` [Example 260, N-[4-(N,N-dietylamino)-6-ethylthio-2-methylpyrimidin-5-yl]-4-(N-hexyl-N-phenylamino)butanamide], in data set [1], the inhibition in vivo at 10 mg/kg is 70%. Besides, the “lethal incident (acute toxicity)” value in data set [3] (single oral dose 1 g/kg) is “no lethal incident was observed”.
As for `CCCCCCN(CCCC(=O)Nc1c(SC(C)C)nc(C)nc1N(CC)CC)c1ccccc1` [Example 262, N-[4-(N,N-dietylamino)-6-isopropylthio-2-methylpyrimidin-5-yl]-4-(N-hexyl-N-phenylamino)butanamide], the inhibition in vivo at 10 mg/kg in data set [1] was 53%. For the same molecule, in data set [3] (single oral dose 1 g/kg), the “lethal incident (acute toxicity)” value is “no lethal incident was observed”.
